Laboratory results published in patent US9884842B2, “Combretastatin analogs” (The Board of Trustees of the University of Arkansas, priority 2013, dated 2018).

test system: SF-295; test: NCI growth inhibition and cytotoxicity screen, CNS Cancer panel; format: cell-based; conditions: Homo sapiens; Table 2; cell line SF-295 (CNS Cancer)

**Q.** For `COc1cc(OC)cc(/C(C#N)=C/c2ccc3ccccc3n2)c1` [PNR-4-84, (Z)-2-(3,5-dimethoxyphenyl)-3-(quinolin-2-yl)acrylonitrile], which GI50 is on record?
**A.** 341 nM

same assay, conditions: Homo sapiens; Table 2; cell line SF-295 (CNS Cancer); read-out: LC50 (the source's name)

**Q.** Which CC50 does the source give for `COc1cc(OC)cc(/C(C#N)=C/c2ccc3ccccc3n2)c1` [PNR-4-84, (Z)-2-(3,5-dimethoxyphenyl)-3-(quinolin-2-yl)acrylonitrile] here?
**A.** > 100000 nM

test system: SNB-19; test: as above; conditions: Homo sapiens, SNB-19

**Q.** `COc1cc(OC)cc(/C(C#N)=C/c2ccc3ccccc3n2)c1` [PNR-4-84, (Z)-2-(3,5-dimethoxyphenyl)-3-(quinolin-2-yl)acrylonitrile] was tested. Which GI50 did it give?
**A.** 728 nM

same assay, conditions: Homo sapiens, SNB-19, read-out: LC50

**Q.** Which CC50 does the source give for `COc1cc(OC)cc(/C(C#N)=C/c2ccc3ccccc3n2)c1` [PNR-4-84, (Z)-2-(3,5-dimethoxyphenyl)-3-(quinolin-2-yl)acrylonitrile] here?
**A.** > 100000 nM

test system: UO-31; test: NCI growth inhibition and cytotoxicity screen, Renal Cancer panel; conditions: Homo sapiens, UO-31

**Q.** `COc1cc(OC)cc(/C(C#N)=C/c2ccc3ccccc3n2)c1` [PNR-4-84, (Z)-2-(3,5-dimethoxyphenyl)-3-(quinolin-2-yl)acrylonitrile] was tested. Which GI50 did it give?
**A.** 573 nM

same assay, conditions: Homo sapiens, UO-31, read-out: LC50

**Q.** `COc1cc(OC)cc(/C(C#N)=C/c2ccc3ccccc3n2)c1` [PNR-4-84, (Z)-2-(3,5-dimethoxyphenyl)-3-(quinolin-2-yl)acrylonitrile] was tested. Which CC50 did it give?
**A.** > 100000 nM

test system: HT29; test: NCI growth inhibition and cytotoxicity screen, Colon Cancer panel; conditions: Homo sapiens, HT-29

**Q.** Which GI50 does the source give for `COc1cc(OC)cc(/C(C#N)=C/c2ccc3ccccc3n2)c1` [PNR-4-84, (Z)-2-(3,5-dimethoxyphenyl)-3-(quinolin-2-yl)acrylonitrile] here?
**A.** 367 nM

same assay, conditions: Homo sapiens, HT-29, read-out: LC50

**Q.** With `COc1cc(OC)cc(/C(C#N)=C/c2ccc3ccccc3n2)c1` [PNR-4-84, (Z)-2-(3,5-dimethoxyphenyl)-3-(quinolin-2-yl)acrylonitrile] as the compound, how does the CC50 read?
**A.** > 100000 nM

test system: NCI-H226; test: NCI growth inhibition and cytotoxicity screen, Lung Cancer panel; conditions: Homo sapiens, NCI-H226

**Q.** How did the GI50 turn out when `COc1cc(OC)cc(/C(C#N)=C/c2ccc3ccccc3n2)c1` [PNR-4-84, (Z)-2-(3,5-dimethoxyphenyl)-3-(quinolin-2-yl)acrylonitrile] was run?
**A.** 10800 nM

same assay, conditions: Homo sapiens, NCI-H226, read-out: LC50

**Q.** `COc1cc(OC)cc(/C(C#N)=C/c2ccc3ccccc3n2)c1` [PNR-4-84, (Z)-2-(3,5-dimethoxyphenyl)-3-(quinolin-2-yl)acrylonitrile] was tested. Which CC50 did it give?
**A.** > 100000 nM

test system: NCI-H522; test: as above; format: cell-based; conditions: Homo sapiens; Table 2; cell line NCI-H522 (Lung Cancer)

**Q.** For `COc1cc(OC)cc(/C(C#N)=C/c2ccc3ccccc3n2)c1` [PNR-4-84, (Z)-2-(3,5-dimethoxyphenyl)-3-(quinolin-2-yl)acrylonitrile], which GI50 is on record?
**A.** 94 nM

same assay, conditions: Homo sapiens; Table 2; cell line NCI-H522 (Lung Cancer); read-out: LC50 (the source's name)

**Q.** With `COc1cc(OC)cc(/C(C#N)=C/c2ccc3ccccc3n2)c1` [PNR-4-84, (Z)-2-(3,5-dimethoxyphenyl)-3-(quinolin-2-yl)acrylonitrile] as the compound, how does the CC50 read?
**A.** > 100000 nM

test system: UACC-257; test: NCI growth inhibition and cytotoxicity screen, Melanoma panel; conditions: Homo sapiens, UACC-257, read-out: LC50

**Q.** `COc1cc(OC)cc(/C(C#N)=C/c2ccc3ccccc3n2)c1` [PNR-4-84, (Z)-2-(3,5-dimethoxyphenyl)-3-(quinolin-2-yl)acrylonitrile] was tested. Which CC50 did it give?
**A.** > 100000 nM

test system: NCI-H23; test: NCI growth inhibition and cytotoxicity screen, Lung Cancer panel; conditions: Homo sapiens, NCI-H23

**Q.** Which GI50 does the source give for `COc1cc(OC)cc(/C(C#N)=C/c2ccc3ccccc3n2)c1` [PNR-4-84, (Z)-2-(3,5-dimethoxyphenyl)-3-(quinolin-2-yl)acrylonitrile] here?
**A.** 983 nM

same assay, conditions: Homo sapiens, NCI-H23, read-out: LC50

**Q.** `COc1cc(OC)cc(/C(C#N)=C/c2ccc3ccccc3n2)c1` [PNR-4-84, (Z)-2-(3,5-dimethoxyphenyl)-3-(quinolin-2-yl)acrylonitrile] was tested. Which CC50 did it give?
**A.** > 100000 nM

test system: COLO 205; test: NCI growth inhibition and cytotoxicity screen, Colon Cancer panel; conditions: Homo sapiens, COLO 205

**Q.** With `COc1cc(OC)cc(/C(C#N)=C/c2ccc3ccccc3n2)c1` [PNR-4-84, (Z)-2-(3,5-dimethoxyphenyl)-3-(quinolin-2-yl)acrylonitrile] as the compound, how does the GI50 read?
**A.** 374 nM

same assay, conditions: Homo sapiens, COLO 205, read-out: LC50

**Q.** How did the CC50 turn out when `COc1cc(OC)cc(/C(C#N)=C/c2ccc3ccccc3n2)c1` [PNR-4-84, (Z)-2-(3,5-dimethoxyphenyl)-3-(quinolin-2-yl)acrylonitrile] was run?
**A.** > 100000 nM

test system: MCF7; test: NCI growth inhibition and cytotoxicity screen, Breast Cancer panel; conditions: Homo sapiens, MCF7

**Q.** For `COc1cc(OC)cc(/C(C#N)=C/c2ccc3ccccc3n2)c1` [PNR-4-84, (Z)-2-(3,5-dimethoxyphenyl)-3-(quinolin-2-yl)acrylonitrile], which GI50 is on record?
**A.** 537 nM

same assay, conditions: Homo sapiens, MCF7, read-out: LC50

**Q.** For `COc1cc(OC)cc(/C(C#N)=C/c2ccc3ccccc3n2)c1` [PNR-4-84, (Z)-2-(3,5-dimethoxyphenyl)-3-(quinolin-2-yl)acrylonitrile], which CC50 is on record?
**A.** > 100000 nM

test system: M14; test: NCI growth inhibition and cytotoxicity screen, Melanoma panel; conditions: Homo sapiens, M14

**Q.** Which GI50 does the source give for `COc1cc(OC)cc(/C(C#N)=C/c2ccc3ccccc3n2)c1` [PNR-4-84, (Z)-2-(3,5-dimethoxyphenyl)-3-(quinolin-2-yl)acrylonitrile] here?
**A.** 360 nM

same assay, conditions: Homo sapiens, M14, read-out: LC50

**Q.** For `COc1cc(OC)cc(/C(C#N)=C/c2ccc3ccccc3n2)c1` [PNR-4-84, (Z)-2-(3,5-dimethoxyphenyl)-3-(quinolin-2-yl)acrylonitrile], which CC50 is on record?
**A.** > 100000 nM

test system: RPMI-8226; test: NCI growth inhibition and cytotoxicity screen, Leukemia panel; conditions: Homo sapiens, RPMI-8226

**Q.** How did the GI50 turn out when `COc1cc(OC)cc(/C(C#N)=C/c2ccc3ccccc3n2)c1` [PNR-4-84, (Z)-2-(3,5-dimethoxyphenyl)-3-(quinolin-2-yl)acrylonitrile] was run?
**A.** 433 nM

same assay, conditions: Homo sapiens, RPMI-8226, read-out: LC50

**Q.** How did the CC50 turn out when `COc1cc(OC)cc(/C(C#N)=C/c2ccc3ccccc3n2)c1` [PNR-4-84, (Z)-2-(3,5-dimethoxyphenyl)-3-(quinolin-2-yl)acrylonitrile] was run?
**A.** > 100000 nM

test system: OVCAR-8; test: NCI growth inhibition and cytotoxicity screen, Ovarian Cancer panel; conditions: Homo sapiens, OVCAR-8

**Q.** With `COc1cc(OC)cc(/C(C#N)=C/c2ccc3ccccc3n2)c1` [PNR-4-84, (Z)-2-(3,5-dimethoxyphenyl)-3-(quinolin-2-yl)acrylonitrile] as the compound, how does the GI50 read?
**A.** 659 nM

same assay, conditions: Homo sapiens, OVCAR-8, read-out: LC50

**Q.** With `COc1cc(OC)cc(/C(C#N)=C/c2ccc3ccccc3n2)c1` [PNR-4-84, (Z)-2-(3,5-dimethoxyphenyl)-3-(quinolin-2-yl)acrylonitrile] as the compound, how does the CC50 read?
**A.** > 100000 nM

test system: NCI/ADR-RES; test: as above; conditions: Homo sapiens

**Q.** For `COc1cc(OC)cc(/C(C#N)=C/c2ccc3ccccc3n2)c1` [PNR-4-84, (Z)-2-(3,5-dimethoxyphenyl)-3-(quinolin-2-yl)acrylonitrile], which GI50 is on record?
**A.** 283 nM

same assay, conditions: Homo sapiens, read-out: LC50

**Q.** With `COc1cc(OC)cc(/C(C#N)=C/c2ccc3ccccc3n2)c1` [PNR-4-84, (Z)-2-(3,5-dimethoxyphenyl)-3-(quinolin-2-yl)acrylonitrile] as the compound, how does the CC50 read?
**A.** > 100000 nM
